“And” between values parts separate entries of the source, which are not always exact repeats. Equal values may be shown once.
Test: xn = mol fraction of the nth substance listed

CCC(N)C(=O)[O-].[Na+] (centres undefined) + O
viscosity [mPa·s], 101.3 kPa
Conditions | x1 = 0.009 | x1 = 0.018 | x1 = 0.029 | x1 = 0.039 | x1 = 0.05 | x1 = 0.062
303.15 K | 1.034 | 1.36 | 1.815 | 2.492 | 3.501 | 4.954
308.15 K | 0.924 | 1.217 | 1.595 | 2.167 | 3.005 | 4.223
313.15 K | 0.836 | 1.093 | 1.417 | 1.91 | 2.608 | 3.646
318.15 K | 0.76 | 0.98 | 1.27 | 1.695 | 2.295 | 3.173
323.15 K | 0.697 | 0.9 | 1.143 | 1.516 | 2.029 | 2.777

CCCCCCCCCCCCCC[P+](CCCCCC)(CCCCCC)CCCCCC.c1c[n-]nn1 + O
Conditions | viscosity [mPa·s]
298.15 K, 100 kPa, x2 = 0.8003 | 106

CCCCN(CCO)CCO + O
viscosity [mPa·s], 101 kPa
Conditions | 303.15 K | 308.15 K | 313.15 K | 318.15 K | 323.15 K
x1 = 0.0501 | 3.144 | 2.695 | 2.335 | 2.041 | 1.795
x1 = 0.0999 | 6.924 | 5.705 | 4.763 | 4.027 | 3.434
x1 = 0.15 | 11.35 | 9.112 | 7.428 | 6.13 | 5.123
x1 = 0.2 | 15.8 | 12.47 | 10.01 | 8.116 | 6.674
x1 = 0.3013 | 25.17 | 19.3 | 15.07 | 11.97 | 9.604
x1 = 0.3988 | 32.99 | 24.94 | 19.22 | 15.07 | 11.96
x1 = 0.4994 | 39.06 | 29.14 | 22.33 | 17.44 | 13.76
x1 = 0.6027 | 42.39 | 31.62 | 24.2 | 18.83 | 14.84
x1 = 0.7058 | 43.85 | 32.83 | 25.16 | 19.65 | 15.51
x1 = 0.8009 | 43.72 | 32.88 | 25.37 | 19.83 | 15.71
x1 = 0.899 | 42.96 | 32.66 | 25.3 | 19.86 | 15.82

C[C@H](N)C(=O)O + O
Conditions | viscosity
298 K, 101 kPa, x1 = 0.0004 | 0.887 mPa·s
298 K, 101 kPa, x1 = 0.0007 | 0.8925 mPa·s
298 K, 101 kPa, x1 = 0.001 | 0.8956 mPa·s
298 K, 101 kPa, x1 = 0.0018 | 0.9013 mPa·s
298.15 K, 100 kPa, x1 = 0.0004 | 0.8955 mPa·s
298.15 K, 100 kPa, x1 = 0.0007 | 0.8979 mPa·s
298.15 K, 100 kPa, x1 = 0.001 | 0.9003 mPa·s and 0.9029 mPa·s
298.15 K, 101 kPa, x1 = 0.000169 | 0.9489 mPa·s and 0.9489 mPa·s
298.15 K, 101 kPa, x1 = 0.00045 | 0.8958 mPa·s
298.15 K, 101 kPa, x1 = 0.0009 | 0.9013 mPa·s
298.15 K, 101 kPa, x1 = 0.00135 | 0.9069 mPa·s
298.15 K, 101 kPa, x1 = 0.00178 | 0.9677 mPa·s and 0.9677 mPa·s
298.15 K, 101 kPa, x1 = 0.0018 | 0.9126 mPa·s
298.15 K, 101 kPa, x1 = 0.002695 | 0.9242 mPa·s
298.15 K, 101 kPa, x1 = 0.003596 | 0.9759 mPa·s and 0.9759 mPa·s
298.15 K, 101 kPa, x1 = 0.005338 | 0.9871 mPa·s and 0.9871 mPa·s
298.15 K, 101 kPa, x1 = 0.01087 | 1.039 mPa·s and 1.039 mPa·s
298.15 K, 101 kPa, x1 = 0.0124 | 1.045 mPa·s and 1.045 mPa·s
298.15 K, 101 kPa, x1 = 0.01417 | 1.054 mPa·s and 1.054 mPa·s
303.15 K, 101 kPa, x1 = 0.00045 | 0.8023 mPa·s
303.15 K, 101 kPa, x1 = 0.0009 | 0.8076 mPa·s
303.15 K, 101 kPa, x1 = 0.00135 | 0.8128 mPa·s
303.15 K, 101 kPa, x1 = 0.0018 | 0.8182 mPa·s
303.15 K, 101 kPa, x1 = 0.001802 | 0.8176 mPa·s
303.15 K, 101 kPa, x1 = 0.002245 | 0.8235 mPa·s
303.15 K, 101 kPa, x1 = 0.002695 | 0.829 mPa·s
303.15 K, 101 kPa, x1 = 0.01069 | 0.9202 mPa·s
303.15 K, 101 kPa, x1 = 0.01245 | 0.9412 mPa·s
308.15 K, 101 kPa, x1 = 0.000169 | 0.7568 mPa·s and 0.7568 mPa·s
308.15 K, 101 kPa, x1 = 0.00045 | 0.7238 mPa·s
308.15 K, 101 kPa, x1 = 0.000844 | 0.7678 mPa·s and 0.7678 mPa·s
308.15 K, 101 kPa, x1 = 0.0009 | 0.7288 mPa·s
308.15 K, 101 kPa, x1 = 0.00135 | 0.7338 mPa·s
308.15 K, 101 kPa, x1 = 0.00178 | 0.7755 mPa·s and 0.7755 mPa·s
308.15 K, 101 kPa, x1 = 0.002245 | 0.7439 mPa·s
308.15 K, 101 kPa, x1 = 0.002695 | 0.749 mPa·s
308.15 K, 101 kPa, x1 = 0.003596 | 0.799 mPa·s and 0.799 mPa·s
308.15 K, 101 kPa, x1 = 0.005338 | 0.8044 mPa·s and 0.8044 mPa·s
308.15 K, 101 kPa, x1 = 0.007149 | 0.8133 mPa·s and 0.8133 mPa·s
308.15 K, 101 kPa, x1 = 0.008823 | 0.8201 mPa·s and 0.8201 mPa·s
308.15 K, 101 kPa, x1 = 0.01087 | 0.8366 mPa·s and 0.8366 mPa·s
308.15 K, 101 kPa, x1 = 0.0124 | 0.8431 mPa·s and 0.8431 mPa·s
308.15 K, 101 kPa, x1 = 0.01417 | 0.8612 mPa·s and 0.8612 mPa·s
313.15 K, 101 kPa, x1 = 0.00045 | 0.6571 mPa·s
313.15 K, 101 kPa, x1 = 0.0009 | 0.6618 mPa·s
313.15 K, 101 kPa, x1 = 0.00135 | 0.6666 mPa·s
313.15 K, 101 kPa, x1 = 0.0018 | 0.6714 mPa·s
313.15 K, 101 kPa, x1 = 0.002245 | 0.6761 mPa·s
313.15 K, 101 kPa, x1 = 0.002695 | 0.6809 mPa·s
313.15 K, 101 kPa, x1 = 0.005374 | 0.6994 mPa·s
313.15 K, 101 kPa, x1 = 0.008931 | 0.7316 mPa·s
313.15 K, 101 kPa, x1 = 0.01245 | 0.7659 mPa·s
318.15 K, 101 kPa, x1 = 0.000169 | 0.6345 mPa·s
318.15 K, 101 kPa, x1 = 0.00045 | 0.6014 mPa·s
318.15 K, 101 kPa, x1 = 0.000844 | 0.6454 mPa·s and 0.6454 mPa·s
318.15 K, 101 kPa, x1 = 0.0009 | 0.6059 mPa·s
318.15 K, 101 kPa, x1 = 0.00135 | 0.6104 mPa·s
318.15 K, 101 kPa, x1 = 0.00178 | 0.6589 mPa·s and 0.6589 mPa·s
318.15 K, 101 kPa, x1 = 0.0018 | 0.6149 mPa·s
318.15 K, 101 kPa, x1 = 0.002245 | 0.6195 mPa·s
318.15 K, 101 kPa, x1 = 0.002695 | 0.624 mPa·s
318.15 K, 101 kPa, x1 = 0.003596 | 0.6733 mPa·s and 0.6733 mPa·s
318.15 K, 101 kPa, x1 = 0.005338 | 0.6747 mPa·s and 0.6747 mPa·s
318.15 K, 101 kPa, x1 = 0.007149 | 0.6774 mPa·s and 0.6774 mPa·s
318.15 K, 101 kPa, x1 = 0.008823 | 0.699 mPa·s and 0.699 mPa·s
318.15 K, 101 kPa, x1 = 0.01087 | 0.7009 mPa·s and 0.7009 mPa·s
318.15 K, 101 kPa, x1 = 0.0124 | 0.7145 mPa·s and 0.7145 mPa·s
318.15 K, 101 kPa, x1 = 0.01417 | 0.7345 mPa·s and 0.7345 mPa·s
323.15 K, 101 kPa, x1 = 0.005374 | 0.5833 mPa·s
323.15 K, 101 kPa, x1 = 0.008931 | 0.6095 mPa·s
323.15 K, 101 kPa, x1 = 0.01069 | 0.6229 mPa·s
323.15 K, 101 kPa, x1 = 0.01245 | 0.6364 mPa·s

Nc1ccc(S(=O)(=O)[O-])cc1.[Na+] + O
viscosity [mPa·s], 101 kPa
Conditions | x1 = 9e-05 | x1 = 0.00018 | x1 = 0.0009 | x1 = 0.0018 | x1 = 0.00448 | x1 = 0.00893 | x1 = 0.0133 | x1 = 0.0177
298.15 K | 0.899 | 0.9 | 0.915 | 0.93 | 0.984 | 1.076 | 1.174 | 1.281
318.15 K | 0.598 | 0.599 | 0.61 | 0.62 | 0.654 | 0.71 | 0.771 | 0.838

Reference: the CheMixHub viscosity set
